How the values were obtained:
[1] = target: T1, human CCR7 (Homo sapiens, UniProt P32248); assay: CCL19-induced calcium mobilization assay, U87.CD4 cells expressing CCR7; type: cell-based; details: for CCR7 antagonism in calcium mobilization assay: CCL19-induced, result in words
T1 construct: expressed in transfected cells
T1 sequence (P32248 25-378): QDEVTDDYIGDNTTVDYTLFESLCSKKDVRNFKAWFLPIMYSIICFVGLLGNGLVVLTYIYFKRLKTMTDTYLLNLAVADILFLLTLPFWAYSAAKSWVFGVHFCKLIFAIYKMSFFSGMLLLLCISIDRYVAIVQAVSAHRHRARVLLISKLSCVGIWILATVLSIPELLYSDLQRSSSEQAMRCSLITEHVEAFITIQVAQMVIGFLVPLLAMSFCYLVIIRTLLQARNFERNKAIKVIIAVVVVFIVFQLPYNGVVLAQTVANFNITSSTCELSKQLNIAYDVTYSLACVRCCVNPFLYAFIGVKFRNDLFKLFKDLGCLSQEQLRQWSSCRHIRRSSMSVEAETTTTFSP
Outline: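 Calcium mobilization was recorded in U87.CD4 cells stably carrying human CXCR2 (stimulated with CXCL8), CCR7 (stimulated with CCL19) or CCR5. Cells were plated at 20,000 cells/well, cultured overnight at 37°C in 5% CO2, and incubated 45 min at room temperature in the dark before reading.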

[2] = system: CCR7; design: method as in Jaeger et al., 2019; details: result in words; ref Jaeger et al., 2019; cited from earlier work
[3] = target: T1, human CCR7; assay: CCR7 competition binding assay with CCL19^AF647 (flow cytometry, whole cells)
Method: In brief, U87.CD4.CCR7 cells were pre-incubated with compound (at different concentrations) in 150 μL assay buffer [Hank’s balanced salt solution (HBSS), 20 mM HEPES and 0.5% Fetal Calf Serum] for 15 min at room temperature (RT) in the dark. Afterwards, 50 μL of CCL19^AF647 was added (25 ng/mL final concentration) and samples were incubated for another 30 min at RT, protected from light. Then, cells were washed twice with assay buffer and fixed in 1% paraformaldehyde in Dulbecco’s phosphate-buffered saline (DPBS).
Samples were immediately analyzed by flow cytometry (FACS Canto II, BD). Data were analysed using Flowjo. The percentage inhibition of CCL19^AF647 binding was calculated according to formula {1—[(MFIX–MFINC)/(MFIPC–MFINC)]} x 100, where MFIX is the mean fluorescence intensity (MFI) of the compound-treated sample, MFINC the MFI of the negative control (i.e., autofluorescence of untreated and unlabeled cells) and MFIPC the MFI of the positive control (i.e., cells exposed to CCL19^AF647 only). […] For each experiment the stain index (SI) was calculated as the ratio of the separation between MFIPC and MFINC, divided by two times the standard deviation of MFINC.

[4] = classification of tested compounds as decoy or active
[5] = CCL19-induced calcium signaling, read-out: IC50 [μM] block CCL19 induced calcium signaling
[6] = CCL19 induced calcium signaling, read-out: IC50 [μM] block CCL19 induced calcium signaling
[7] = classification as decoy or active on CCR7

Row | Compound | Decoy – 0 Active – 1 [1, 4] | IC50 [1, 5] [µM] | Decoy – 0 Active – 1 [1, 7] | other results
1 | Maraviroc [reference compound] | 0 | – | – | CCR7 antagonism in calcium mobilization assay [1]: absence of activity; thermal stabilization of CCR7 [2]: completely lacked the ability to thermally stabilize CCR7
2 | COCCNc1c(Nc2cccc(C#N)c2)c(=O)c1=O [CS-2, 3-((2-((2-Methoxyethyl)amino)-3,4-dioxocyclobut-1-en-1-yl)amino)benzonitrile, reference compound] | 0 | – | – | IC50 ([3]; inhibition of CCL19^AF647 binding, Mean ± SD of four independent experiments): > 50 µM; inhibition of CCL19^AF647 binding / CCR7 affinity ([3]; result in words): did not show any CCR7 affinity; IC50 [1]: > 50 µM; CCR7 antagonism in calcium mobilization assay [1]: inactive; thermal stabilization of CCR7 [2]: hits in the thermofluor stability assay, albeit less potent than cmp2105 and navarixin
3 | CC(C)(C)c1ccc(S(=O)(=O)Nc2ccc(Cl)cc2C(=O)c2cc[n+]([O-])cc2)cc1 [Vercirnon] | – | – | – | thermal stabilization of CCR7 [2]: completely lacked the ability to thermally stabilize CCR7
4 | CCOc1ccc(NC(=O)C2CCN(C3=NS(=O)(=O)C(c4ccc(OC)cc4)=C3C)CC2)cc1 [CS-1] | – | – | – | thermal stabilization of CCR7 [2]: hits in the thermofluor stability assay, albeit less potent than cmp2105 and navarixin
5 | CC1(C)[C@H]2CC[C@@]1(CNc1c(NCc3cc(C(F)(F)F)cc(C(F)(F)F)c3)c(=O)c1=O)[C@H](N1CCCC1)C2 [C019, O=C1C(NC[C@]23CC[C@H](C3(C)C)C[C@H]2N4CCCC4)=C(NCC5=CC(C(F)(F)F)=CC(C(F)(F)F)=C5)C1=O] | 0 | > 50 | – | –
6 | COc1ccc([N+](=O)[O-])c(C(=O)N[C@@H](c2ncccc2C)C(C)C)c1 [C135, COc1ccc([N+](=O)[O-])c(C(=O)N[C@@H](c2ncccc2C)C(C)C)c1] | 0 | > 50 | – | –
7 | Cc1cnc([C@@H](C)CNC(=O)Nc2ccc3c(c2)S(=O)(=O)CC3)s1 [C113, Cc1cnc([C@@H](C)CNC(=O)Nc2ccc3c(c2)S(=O)(=O)CC3)s1] | 0 | > 50 | – | –
8 | Cc1ccc(CN(C(=O)CNc2ccc(C(N)=O)c(C)c2)C2CC2)o1 [C053, Cc1ccc(CN(C(=O)CNc2ccc(C(N)=O)c(C)c2)C2CC2)o1] | 0 | > 10 | – | –
9 | CN1CCN(CCC2CCCCN2Cc2nc3ccccc3[nH]2)CC1 (stereo not drawn) [C275, CN1CCN(CCC2CCCCN2Cc2nc3ccccc3[nH]2)CC1] | – | – | 0 | IC50 [1, 6]: > 50 µM
10 | Cc1ccccc1C(O)CNC(=O)NCCc1cccc(C(N)=O)c1 (stereo not drawn) [C217, Cc1ccccc1C(O)CNC(=O)NCCc1cccc(C(N)=O)c1] | – | – | 0 | IC50 [1, 6]: > 50 µM
11 | Cn1nc(C(=O)N[C@@H]2CCCC[C@@H]2Cc2ccccc2)ccc1=O [C160, Cn1nc(C(=O)N[C@@H]2CCCC[C@@H]2Cc2ccccc2)ccc1=O] | – | – | 0 | IC50 [1, 6]: > 50 µM
12 | O=C(Nc1nc2c(s1)C(=O)CC(C(=O)NC1CCCc3ccccc31)C2)c1ccncc1 (stereo not drawn) [C225, O=C(Nc1nc2c(s1)C(=O)CC(C(=O)NC1CCCc3ccccc31)C2)c1ccncc1] | – | – | 0 | IC50 [1, 6]: > 50 µM
13 | NC(=O)C1CC(O)CN1C(=S)Nc1ccc(S(=O)(=O)N2CCOCC2)cc1 (stereo not drawn) [C028, NC(=O)C1CC(O)CN1C(=S)Nc1ccc(cc1)S(=O)(=O)N1CCOCC1] | 0 | > 30 | – | –
14 | COc1ccc(S(=O)(=O)Nc2ccccc2C(=O)N2CCOCC2)cc1C [C260, Cc1cc(ccc1OC)S(=O)(=O)Nc2ccccc2C(=O)N3CCOCC3] | – | – | 0 | IC50 [1, 6]: > 50 µM
15 | CN(C)C1(CNc2c(N3CCN(Cc4ccccc4Cl)CC3)c(=O)c2=O)CCCC1 [C015, C[NH+](C)C1(CNc2c(N3CC[NH+](Cc4ccccc4Cl)CC3)c(=O)c2=O)CCCC1] | 0 | > 50 | – | –
16 | Cc1ccc(N[C@H]2CS(=O)(=O)C[C@H]2OC(=O)c2ccccc2)cc1 [C120, Cc1ccc(N[C@H]2CS(=O)(=O)C[C@H]2OC(=O)c2ccccc2)cc1] | 0 | > 50 | – | –
17 | CCN(CC)C(CNC(=O)c1ccc(C)[nH]c1=O)Cc1ccccc1 (stereo not drawn) [C283, CCN(CC)C(CNC(=O)c1ccc(C)[nH]c1=O)Cc1ccccc1] | – | – | 0 | IC50 [1]: > 50 µM
18 | COC(=O)c1sccc1Nc1c(NC2CCCCC2)c(=O)c1=O [C006, COC(=O)c1sccc1Nc1c(NC2CCCCC2)c(=O)c1=O] | 0 | > 50 | – | –
19 | COc1c[nH]c(C(=O)NC(c2cccnc2)C(F)(F)F)cc1=O (stereo not drawn) [C213, COc1c[nH]c(C(=O)NC(c2cccnc2)C(F)(F)F)cc1=O] | – | – | 0 | IC50 [1, 6]: > 50 µM
20 | CN1CCN(C(=O)c2ccc(CN(c3ccccc3)S(=O)(=O)c3ccccc3)cc2)CC1 [C234, C[NH+]1CCN(CC1)C(=O)c2ccc(cc2)CN(c3ccccc3)S(=O)(=O)c4ccccc4] | – | – | 0 | IC50 [1, 6]: > 50 µM
21 | COC(=O)c1ccccc1Nc1c(N2CCNC(=O)C2)c(=O)c1=O [C005, COC(=O)c1ccccc1Nc1c(N2CCNC(=O)C2)c(=O)c1=O] | 0 | > 50 | – | –
22 | Cc1ccc(S(=O)(=O)N(CCC(N)=O)Cc2ccccc2)cc1 [C258, Cc1ccc(cc1)S(=O)(=O)N(CCC(=O)N)Cc2ccccc2] | – | – | 0 | IC50 [1, 6]: > 50 µM
23 | CN(C)C(=O)c1cccc(NC(=O)NCCc2ccccn2)c1 [C076, CN(C)C(=O)c1cccc(NC(=O)NCCc2ccccn2)c1] | 0 | > 10 | – | –
24 | Cc1ccc(C(C)NC(=O)C(=O)Nc2cc(C(=O)N(C)C)ccc2C)o1 (stereo not drawn) [C058, Cc1ccc(C(C)NC(=O)C(=O)Nc2cc(C(=O)N(C)C)ccc2C)o1] | 0 | > 10 | – | –
25 | Cn1cc(C2CN(S(=O)(=O)c3ccc4c(c3)CCCC4)CC2CO)cn1 (stereo not drawn) [C269, Cn1cc(cn1)C2CN(CC2CO)S(=O)(=O)c3ccc4c(c3)CCCC4] | – | – | 0 | IC50 [1, 6]: > 50 µM
26 | COC(=O)/C(=C\NC(=S)N/C=C(/OC(=N)c1ccccc1)C(=O)OC)NC(=O)c1ccccc1 [C042, S=C(N/C=C(C(OC)=O)/NC(C1=CC=CC=C1)=O)N/C=C(C(OC)=O)/OC(C2=CC=CC=C2)=N] | 0 | > 30 | – | –
27 | Cc1ccc(CNC(=O)c2nnc(-c3ccc(S(=O)(=O)N4CCCC4)cc3)o2)o1 [C091, Cc1ccc(CNC(=O)c2nnc(-c3ccc(S(=O)(=O)N4CCCC4)cc3)o2)o1] | 0 | > 50 | – | –
28 | C/N=C(\NCCC(=O)N(C)C)N[C@H](C)c1ccc(C)o1 [C140, C/[NH+]=C(\NCCC(=O)N(C)C)N[C@H](C)c1ccc(C)o1] | 0 | > 50 | – | –
29 | COc1cccc(N(CC(=O)Nc2cccc([N+](=O)[O-])c2)S(=O)(=O)c2ccc(C)cc2)c1 [C255, Cc1ccc(cc1)S(=O)(=O)N(CC(=O)Nc2cccc(c2)[N+](=O)[O-])c3cccc(c3)OC] | – | – | 0 | IC50 [1, 6]: > 50 µM

Second part, led by results:

Row | Decoy – 0 Active – 1 [1, 4] | IC50 [1, 5] [µM] | Compound | Decoy – 0 Active – 1 [1, 7] | other results
30 | 0 | > 50 | CNC(=O)c1cccc(NC(=O)c2cn(Cc3ccccn3)nn2)c1C [C100, CNC(=O)c1cccc(NC(=O)c2cn(Cc3ccccn3)nn2)c1C] | – | –
31 | 0 | > 50 | O=C(NCc1ccccn1)c1cn2c(n1)C(=O)N(CC1CC1)CC2 [C095, O=C(NCc1ccccn1)c1cn2c([nH+]1)C(=O)N(CC1CC1)CC2] | – | –
32 | 0 | > 50 | C[C@H](c1ccccc1)N(C)CC(=O)Nc1cccc(C(=O)N(C)C)c1 [C133, C[C@H](c1ccccc1)[N@@H+](C)CC(=O)Nc1cccc(C(=O)N(C)C)c1] | – | –
33 | 0 | > 50 | C[C@@H]1CCN(Cc2ccccc2)C[C@H]1Nc1nccc(C(N)=O)c1[N+](=O)[O-] [C116, C[C@@H]1CC[N@H+](Cc2ccccc2)C[C@H]1Nc1nccc(C(N)=O)c1[N+](=O)[O-]] | – | –
34 | 0 | > 50 | Cc1cccc([C@H](NC(=O)c2cc(-c3ccccc3F)n[nH]2)C2CC2)n1 [C136, Cc1cccc([C@H](NC(=O)c2cc(-c3ccccc3F)n[nH]2)C2CC2)n1] | – | –
35 | 0 | > 50 | CNC(=O)c1cccc(NC(=O)N2CC[C@@H](c3ccccc3)C2)c1C [C098, CNC(=O)c1cccc(NC(=O)N2CC[C@@H](c3ccccc3)C2)c1C] | – | –
36 | 0 | > 50 | O=C(O[C@@H]1CS(=O)(=O)C[C@@H]1Nc1ccccc1)c1ccccc1 [C123, O=C(O[C@@H]1CS(=O)(=O)C[C@@H]1Nc1ccccc1)c1ccccc1] | – | –

Source: paper PMC8972196, “A Set of Experimentally Validated Decoys for the Human CC Chemokine Receptor 7 (CCR7) Obtained by Virtual Screening” (Frontiers in Pharmacology, 2022)
